The values below come from ChEMBL document CHEMBL4715876 (J Med Chem, 2020).

Structures are written as SMILES. ≈ marks a conversion by molar mass, not a printed value.

Series [1] is described as follows: Tmax in BALB/C mouse at 10 mg/kg, po measured upto 24 hrs by LC-MS analysis. Format: ADME, organism-based. The settings on record: in vivo.
Series [2] in a line: Cmax in BALB/C mouse at 1 mg/kg, iv measured upto 24 hrs by LC-MS analysis. Format: ADME, organism-based. Details: route intravenous, dose 1 mg/kg, time <= 24. The settings on record: in vivo.
Series [3] is described as follows: Tmax in BALB/C mouse at 1 mg/kg, iv measured upto 24 hrs by LC-MS analysis. The format is ADME, organism-based. The settings on record: in vivo.
Series [4] is described as follows: AUClast in BALB/C mouse at 1 mg/kg, iv measured upto 24 hrs by LC-MS analysis. The settings on record: in vivo. Format: ADME, organism-based. Details: route intravenous, dose 1 mg/kg, time <= 24.
Series [5] in a line: Solubility of the compound. The format is physicochemical.
The nature of series [6]: Cmax in BALB/C mouse at 10 mg/kg,po measured upto 24 hrs by LC-MS analysis. Also noted: route oral, dose 10 mg/kg, time <= 24. The format is ADME, organism-based. The settings on record: in vivo.
Series [7] can be described thus: Lipophilicity, log D of compound at pH 7.4. Conditions: buffer. The format is physicochemical.
The nature of series [8]: Oral bioavailability in BALB/C mouse at 10 mg/kg measured upto 24 hrs by LC-MS analysis. The settings on record: in vivo. The format is ADME, organism-based.
Series [9] is described as follows: Volume of distribution at steady state in BALB/C mouse at 1 mg/kg, iv measured upto 24 hrs by LC-MS analysis. The format is ADME, organism-based. The settings on record: in vivo, read-out: Vdss.
Series [10] can be described thus: AUClast in BALB/C mouse at 10 mg/kg,po measured upto 24 hrs by LC-MS analysis. Also noted: route oral, dose 10 mg/kg, time <= 24. Conditions: in vivo. The format is ADME, organism-based.
Series [11] is described as follows: Drug uptake in CB.17 SCID mouse xenografted with TMD-8 cells tumor at 30 mg/kg, po once daily for 19 days. The format is ADME, organism-based, Neoplasm. The settings on record: time 19 day, read-out: Drug uptake.
Series [12] can be described thus: Plasma concentration in CB.17 SCID mouse xenografted with TMD-8 cells at 3 mg/kg, po once daily for 19 days. The settings on record: time 19 day. Format: ADME, organism-based.
Series [13] can be described thus: Drug uptake in CB.17 SCID mouse tumor xenografted with OCI-LY10 cells at 10 mg/kg, po once daily for 24 days. The settings on record: time 24 day, read-out: Drug uptake. Format: ADME, organism-based, Neoplasm.
Series [14] can be described thus: Volume of distribution at steady state in Beagle dog at 1 mg/kg, iv measured upto 24 hrs by LC-MS/MS analysis. Conditions: beagle, in vivo, read-out: Vdss. The format is ADME, organism-based, Canis lupus familiaris.
Series [15] can be described thus: Free drug concentration in CB.17 SCID mouse xenografted with OCI-LY10 cells at 30 mg/kg, po once daily for 24 days. Conditions: in vivo, 576 h, time 24 day. Format: ADME, organism-based.
Series [16] in a line: Plasma concentration in CB.17 SCID mouse xenografted with OCI-LY10 cells at 10 mg/kg, po once daily for 24 days. Format: ADME, organism-based. Conditions: time 24 day.
Series [17] can be described thus: Drug uptake in CB.17 SCID mouse tumor xenografted with OCI-LY10 cells at 3 mg/kg, po once daily for 24 days. Format: ADME, organism-based, Neoplasm. The settings on record: time 24 day, read-out: Drug uptake.
A short description of series [18]: AUClast in Sprague-Dawley rat at 1 mg/kg, iv measured upto 24 hrs by LC-MS/MS analysis. The format is ADME, organism-based. The settings on record: in vivo. Details: route intravenous, dose 1 mg/kg, time <=24.
Series [19] is described as follows: Plasma concentration in CB.17 SCID mouse xenografted with TMD-8 cells at 1 mg/kg, po once daily for 19 days. The format is ADME, organism-based. Conditions: time 19 day.
Series [20] can be described thus: Tmax in Sprague-Dawley rat at 1 mg/kg, iv measured upto 24 hrs by LC-MS/MS analysis. The format is ADME, organism-based. Conditions: in vivo.
A short description of series [21]: Drug uptake in CB.17 SCID mouse tumor xenografted with OCI-LY10 cells at 1 mg/kg, po once daily for 24 days. Format: ADME, organism-based, Neoplasm. The settings on record: time 24 day, read-out: Drug uptake.
Series [22] is described as follows: Drug uptake in CB.17 SCID mouse tumor xenografted with TMD-8 cells at 3 mg/kg, po once daily for 19 days. Format: ADME, organism-based, Neoplasm. The settings on record: time 19 day, read-out: Drug uptake.
Series [23] in a line: Drug uptake in CB.17 SCID mouse tumor xenografted with OCI-LY10 cells at 30 mg/kg, po once daily for 24 days. Format: ADME, organism-based, Neoplasm. The settings on record: time 24 day, read-out: Drug uptake.
The nature of series [24]: Plasma concentration in CB.17 SCID mouse xenografted with TMD-8 cells at 30 mg/kg, po once daily for 19 days. The format is ADME, organism-based. The settings on record: time 19 day.
A short description of series [25]: Drug uptake in CB.17 SCID mouse tumor xenografted with TMD-8 cells at 10 mg/kg, po once daily for 19 days. The format is ADME, organism-based, Neoplasm. Conditions: time 19 day, read-out: Drug uptake.
A short description of series [26]: Drug uptake in CB.17 SCID mouse tumor xenografted with SUDHL-6 cells assessed as effect on body weight at 5 mg/kg, po once daily for 15 days. Format: ADME, organism-based, Neoplasm. Conditions: time 15 day, read-out: Drug uptake.
Series [27] can be described thus: Plasma concentration in CB.17 SCID mouse xenografted with OCI-LY10 cells at 30 mg/kg, po once daily for 24 days. The settings on record: time 24 day. The format is ADME, organism-based.
Series [28] can be described thus: Plasma concentration in CB.17 SCID mouse xenografted with TMD-8 cells at 10 mg/kg, po once daily for 19 days. The settings on record: time 19 day. Format: ADME, organism-based.
Series [29] in a line: Volume of distribution at steady state in Sprague-Dawley rat at 1 mg/kg, iv measured upto 24 hrs by LC-MS/MS analysis. Format: ADME, organism-based. The settings on record: in vivo, read-out: Vdss.
A short description of series [30]: Free drug concentration in CB.17 SCID mouse xenografted with TMD-8 cells at 30 mg/kg, po once daily for 19 days. Format: ADME, organism-based. The settings on record: in vivo, 456 h, time 19 day.
A short description of series [31]: Plasma concentration in CB.17 SCID mouse xenografted with OCI-LY10 cells at 3 mg/kg, po once daily for 24 days. The format is ADME, organism-based. Conditions: time 24 day.
The nature of series [32]: Plasma concentration in CB.17 SCID mouse xenografted with OCI-LY10 cells at 1 mg/kg, po once daily for 24 days. Format: ADME, organism-based. The settings on record: time 24 day.
Series [33] in a line: Oral bioavailability in Sprague-Dawley rat at 10 mg/kg measured upto 24 hrs by LC-MS/MS analysis. The format is ADME, organism-based. The settings on record: in vivo.
Series [34] in a line: AUClast in Sprague-Dawley rat at 10 mg/kg, po measured upto 24 hrs by LC-MS/MS analysis. The format is ADME, organism-based. Details: route oral, dose 10 mg/kg, time <=24. Conditions: in vivo.
The nature of series [35]: Tmax in Sprague-Dawley rat at 10 mg/kg, po measured upto 24 hrs by LC-MS/MS analysis. Format: ADME, organism-based. The settings on record: in vivo.
Series [36] can be described thus: Cmax in Sprague-Dawley rat at 10 mg/kg, po measured upto 24 hrs by LC-MS/MS analysis. Details: route oral, dose 10 mg/kg, time <=24. Conditions: in vivo. The format is ADME, organism-based.
Series [37] can be described thus: Plasma concentration in CB.17 SCID mouse tumor xenografted with SUDHL-6 cells assessed as effect on body weight at 5 mg/kg, po once daily for 15 days. The format is ADME, organism-based. The settings on record: time 15 day.
A short description of series [38]: Drug uptake in CB.17 SCID mouse tumor xenografted with TMD-8 cells at 1 mg/kg, po once daily for 19 days. The format is ADME, organism-based, Neoplasm. Conditions: time 19 day, read-out: Drug uptake.
The nature of series [39]: Cmax in Sprague-Dawley rat at 1 mg/kg, iv measured upto 24 hrs by LC-MS/MS analysis. The format is ADME, organism-based. Also noted: route intravenous, dose 1 mg/kg, time <=24. Conditions: in vivo.

As for `C[C@H](Nc1nc(N)nc(N)c1C#N)c1cc(=O)n2cc(F)ccc2c1-c1cc(F)cc(F)c1`, the time of peak concentration (Tmax) stood at 30 min in series [1] and 4.8 min in [3]. Besides, the values for the peak concentration (Cmax) in series [2] and in [6] were 1100 nM and 4700 nM, respectively. The AUC(0-t) at 24 h came to 2 µM·h in series [4] and 12 µM·h in [10]. This molecule displayed a solubility in series [5] of 368 µM (≈ 166 µg/mL). The molecule also displayed a logD in [7] of 1.88. The molecule also showed a bioavailability in series [8] of 60%. Also, the Vd in [9] came out at 1.9 L/kg.

`C[C@H](Nc1nc(N)nc(N)c1C#N)c1c(-c2ccccc2)c(=O)n2cc(F)ccc2c1-c1ccc(F)cc1`: the Tmax in series [1] is 60 min; in [3], 4.8 min; in series [20] it was 4.8 min; in [35], 120 min. The concentration at 456 h in series [11] is 4080 nM; in [12], 700 nM; in series [19], 210 nM; in series [22] it was 630 nM; in series [24], 5500 nM; in series [25], 1650 nM. The concentration at 456 h in series [28] worked out at 2670 nM; in series [38], 170 nM. The concentration at 576 h in [13] turned out to be 960 nM; in [16], 1720 nM; in series [17] it was 380 nM; in series [21], 130 nM; in series [23], 3250 nM; in series [27], 5220 nM. Further, the values for the concentration at 576 h in series [31] and in [32] were 710 nM and 180 nM, respectively. Also, the figures for the Vd in [14], in [9] and in series [29] were 0.4 L/kg, 0.7 L/kg and 1 L/kg, respectively. The “Drug uptake(free)” value in [15] came to 157.6 nM; in [30] it was 166.1 nM. Also, the Cmax worked out at 2300 nM in [2], 7500 nM in [6], 4800 nM in series [36] and 1700 nM in [39]. Moreover, the AUC(0-t) at 24 h was 5.7 µM·h in series [4], 11 µM·h in series [18], 22 µM·h in series [10] and 36 µM·h in [34]. Moreover, the concentration in solution in series [5] (solubility) was 68.5 µM (≈ 34.9 µg/mL). This molecule also returned a pH-dependent lipophilicity (logD) in series [7] of 2.38. Also, the bioavailability was found to be 39% in [8] and 33% in series [33]. The concentration at 360 h in series [26] is 200 nM; in series [37], 380 nM.

With `Cc1c([C@H](C)Nc2nc(N)nc(N)c2C#N)c(-c2ccccc2)c(=O)n2cc(F)ccc12`, the time to peak (Tmax) is 30 min in [1] and 4.8 min in [3]. In addition, the Cmax in [2] came out at 1300 nM; in series [6], 2100 nM. Further, the AUC(0-t) at 24 h in series [4] came to 0.8 µM·h; in series [10], 2.4 µM·h. In series [8], this molecule registered a bioavailability of 30%. The Vd in series [9] stood at 1.7 L/kg.

With `C[C@H](Nc1nc(N)nc(N)c1C#N)c1cc2ccc(F)cn2c(=O)c1-c1ccccc1`, the time of peak concentration (Tmax) in series [1] was 30 min; in [3], 4.8 min. Further, the peak concentration (Cmax) in [2] stood at 2300 nM; in [6], 2600 nM. In addition, the AUC(0-t) at 24 h in series [4] was found to be 1.6 µM·h; in series [10] it was 3.5 µM·h. In [5], the solubility is 691 µM (≈ 287 µg/mL). Besides, the logD in series [7] was 1.26. The bioavailability in series [8] came out at 22%. Further, the Vd in series [9] is 1.3 L/kg.
